Results published in patent US8658638B2, “Mineralocorticoid receptor antagonist and methods of use” (priority 2009, dated 2014).

How the values were obtained:
[1] = system: uni-nephrectomized Sprague Dawley rats; assay: In vivo model of aldosterone mediated hypertension; conditions: orally once daily 1-30 mg/kg/day x 14 days, rat
Experimental: Male uni-nephrectomized Sprague Dawley rats (240-280 g) are housed individually with ad lib house water and rodent 5001 diet for one week. After acclimation, animals are implanted with Alzet pumps to subcutaneously deliver 0.25 μg/h of aldosterone at 2.5 μl/h for up to 28 days, and maintained on a diet containing 6% NaCl and drinking water containing 0.3% KCl throughout the duration of the study. Radiotelemetry devices are also implanted to monitor arterial blood pressure. For example, signals from each animal are sampled every 10 minutes throughout the study. The mean (±SEM) of all values collected over a twenty four hour period represent the mean daily arterial pressure for each animal.
On the day following pump implantation, test compound in a vehicle comprising 1% medium viscosity sodium carboxy methylcellulose/0.25% polysorbate 80/0.05% Antifoam 1510 ™, or vehicle alone, is then administered by once daily oral gavage (10 mL/kg).

[2] = system: uni-nephrectomized Sprague Dawley rats; assay: In vivo model of aldosterone mediated renal disease; conditions: 10 mg/kg/day x 28 days, oral gavage, aldosterone infusion, 6% salt diet, rat
Experimental: Male uni-nephrectomized Sprague Dawley rats (240-280 g) are housed individually with ad lib house water and rodent 5001 diet for one week. After acclimation, baseline 24 h urine samples are collected and analyzed for total urine protein and creatinine. Animals are randomized via body weight and baseline urine protein into study groups. Baseline serum is taken by tail-clip and analyzed for blood urea nitrogen (BUN), creatinine, and electrolytes. After baseline samples are taken, all rats with the exception of the control group are maintained on a diet containing 6% salt, and drinking water containing 0.3% KCl throughout the study duration. […] Alza mini-pumps to deliver 2.5 μl/h×28 days of d-aldosterone in 0.01% DMSO at 0.75 μg/h, s.c. are implanted in non-control animals (e.g Test Compound group and Vehicle only group) under isoflourane anesthesia. Test compound, in a vehicle comprising 1% carboxy methylcellulose (CMC)/0.25% polysorbate 80, or vehicle alone, is then administered by once daily oral gavage (10 mL/kg) beginning the day after aldosterone implantation. Repeat urine samples are collected after 2 and 4 weeks of compound or vehicle alone administration and analyzed for total urine protein and creatinine. At study termination, pharmacokinetic samples are obtained at 8 timepoints (0.5, 1, 2, 3, 6, 8, 12 and 24 h). […]

[3] = molecular target: T1, human progesterone receptor (PR) (Homo sapiens, UniProt P06401); assay: Nuclear hormone receptor panel screen (luciferase reporter, HEK293), PR; type: cell-based
T1 construct: expressed in transfected cells; host or cells: HEK293
T1 sequence (P06401 1-933): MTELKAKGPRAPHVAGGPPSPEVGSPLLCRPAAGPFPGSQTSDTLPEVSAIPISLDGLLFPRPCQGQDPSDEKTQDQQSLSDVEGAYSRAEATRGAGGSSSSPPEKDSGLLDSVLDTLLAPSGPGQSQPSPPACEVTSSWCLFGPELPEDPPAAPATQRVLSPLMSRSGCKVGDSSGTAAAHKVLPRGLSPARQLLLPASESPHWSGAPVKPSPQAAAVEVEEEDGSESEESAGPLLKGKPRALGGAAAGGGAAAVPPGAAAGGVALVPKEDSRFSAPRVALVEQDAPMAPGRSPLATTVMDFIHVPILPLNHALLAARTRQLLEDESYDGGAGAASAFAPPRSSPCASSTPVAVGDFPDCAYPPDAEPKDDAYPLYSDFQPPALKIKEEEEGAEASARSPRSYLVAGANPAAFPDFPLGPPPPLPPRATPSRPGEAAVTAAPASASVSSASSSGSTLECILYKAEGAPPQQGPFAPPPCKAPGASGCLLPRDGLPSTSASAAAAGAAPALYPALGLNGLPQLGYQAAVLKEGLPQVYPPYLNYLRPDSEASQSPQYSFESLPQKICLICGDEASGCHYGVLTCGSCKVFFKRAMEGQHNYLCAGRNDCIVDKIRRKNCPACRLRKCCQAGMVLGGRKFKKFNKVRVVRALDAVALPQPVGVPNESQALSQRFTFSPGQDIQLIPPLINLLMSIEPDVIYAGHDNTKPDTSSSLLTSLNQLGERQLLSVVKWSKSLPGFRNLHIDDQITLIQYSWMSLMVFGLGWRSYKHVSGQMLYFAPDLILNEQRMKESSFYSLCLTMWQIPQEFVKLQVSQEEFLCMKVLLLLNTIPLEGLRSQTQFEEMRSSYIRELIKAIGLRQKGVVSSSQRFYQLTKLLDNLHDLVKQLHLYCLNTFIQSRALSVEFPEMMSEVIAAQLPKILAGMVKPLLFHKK
Source text: Aldosterone exerts it physiological effects through interaction with the mineralocorticoid receptor. Following cytoplasmic binding of aldosterone to MR, the ligand receptor complex translocates to the cell nucleus where it binds to hormone response elements on DNA to initiate expression of target genes. […] The solvents, reagents, and ligands employed in the functional assay are readily available from commercial sources, or can be prepared by one of ordinary skill in the art.
Human embryonic kidney HEK293 cells are transfected with steroid hormone receptor and reporter gene plasmids using a suitable transfection reagent such as Fugene™. […] After 24 hours incubation with test compounds, cells are lysed and luciferase activity is determined using standard techniques.
Data are fitted to a four parameter-fit logistic curve to determine EC50 values. […] IC50 values are determined similarly using antagonist mode assay data. In the antagonist mode, percent inhibitions are determined by comparing test compound activity in the presence of low concentration of agonist (0.08 nM aldosterone for MR, 0.25 nM dexamethasone for GR, 0.66 nM of methyltrienolone for AR, and 0.08 nM of promegestone for PR) to the response produced by the same low concentration of agonist in the absence of test compound.

O=c1[nH]c2cc(/C=C3\c4ccccc4COc4cc(F)ccc43)ccc2n1[C@@H]1C[C@@H]2COCCN2C1 [Compound (I), 5-((E)-(3-fluorodibenzo[b,e]oxepin-11(6H)-ylidene)methyl)-1-((7R,8aR)-hexahydro-1H-pyrrolo[2,1-c][1,4]oxazin-7-yl)-1H-benzo[d]imidazol-2(3H)-one]
effect on the hypertensive effects of aldosterone in the presence of salt compared to vehicle [1]: dose dependently reduced the hypertensive effects of aldosterone
reduction of urinary protein excretion compared to vehicle treated animals [2]: about 60%
EC50 ([3]; agonist mode): > 10000 nM
IC50 ([3]; antagonist mode, 0.08 nM promegestone): ~924 nM
